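Results reflect a 48-hour exposure of cells in 96-well plates to compound at five concentrations. The concentration for 50% growth inhibition is given as GI50.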 Activity calls are given as the source filed them. Rule as the data show it: active = GI50 up to about 1.1 µM and inactive = higher. A value given as a limit tells only on which side of the number the result lay.

Some test systems named below: CAKI-1; TK-10; SK-OV-3; HCT-15; RPMI-8226; UACC-62; MDA-MB-231; T47D; HCT-116; NCI-H226; K562; NCI-H522; SNB-75; COLO 205; IGROV-1; SF-268; PC-3; HL-60.
Experiment in all cases: NCI tumour cell line growth inhibition, 48 h

On to `Nc1ccccc1/N=N/c1c(S(=O)(=O)O)cc2cc(S(=O)(=O)O)cc(O)c2c1O`, for which the GI50 in the assay on CAKI-1 was > 100 µM (inactive); in the assay with TK-10 it was > 100 µM (inactive); with SK-OV-3, > 100 µM (inactive); with HCT-15, > 100 µM; with RPMI-8226, > 100 µM (inactive); with UACC-62, > 100 µM (inactive). For the same molecule, the GI50 in the assay with MDA-MB-231 is > 100 µM (inactive); with T47D, > 100 µM (inactive); in the assay with HCT-116, 26.2 µM (inactive); in the assay with NCI-H226 it was > 100 µM (inactive); with K562, > 100 µM (inactive); in the assay on NCI-H522, > 100 µM (inactive). Further, the GI50 with SNB-75, in the assay with COLO 205, in the assay on IGROV-1, in the assay with SF-268 and with PC-3 was > 100 µM (inactive) in each case.
Take `O=C1C=C(c2c(-c3ccccc3)[nH]c3ccccc23)C(=O)N1c1ccccc1`: the GI50 in the assay with CAKI-1 is 5.53 µM (inactive); in the assay with TK-10 it was 12.7 µM (inactive); in the assay with SK-OV-3, 24.8 µM (inactive); in the assay with HCT-15, 5.38 µM; in the assay on RPMI-8226 it was 5.6 µM (inactive); in the assay on UACC-62, 10.7 µM (inactive). For the same molecule, the GI50 in the assay with MDA-MB-231 was 11.3 µM (inactive); in the assay with HCT-116 it was 6.49 µM (inactive); in the assay on NCI-H226 it was 22.6 µM (inactive); with K562, 7.41 µM (inactive); in the assay on COLO 205, 8.3 µM (inactive); in the assay with HL-60 it was 3.96 µM (inactive). The GI50 with IGROV-1 is 14.5 µM (inactive); with SF-268, 4.63 µM (inactive); in the assay on PC-3, 7.78 µM (inactive).
As for `COc1ccc(Nc2nnc(CCCCCCCCc3nnc(Nc4ccc(OC)cc4)o3)o2)cc1`, the GI50 is > 100 µM (inactive) with CAKI-1; > 100 µM (inactive) in the assay with TK-10; > 100 µM (inactive) in the assay on SK-OV-3; > 100 µM in the assay on HCT-15; > 100 µM (inactive) in the assay on MDA-MB-231; > 100 µM (inactive) in the assay with HCT-116. In addition, the GI50 in the assay on NCI-H226 was > 100 µM (inactive); with K562, > 100 µM (inactive); in the assay with NCI-H522, 61.7 µM (inactive); in the assay with SNB-75, > 100 µM (inactive); in the assay on COLO 205, > 100 µM (inactive); in the assay on HL-60 it was > 100 µM (inactive). In addition, the GI50 in the assay with IGROV-1, in the assay with SF-268 and in the assay with PC-3 was > 100 µM (inactive) in each case.
As for `[O-][n+]1c2ccccc2[n+]([O-])c2cc(Br)ccc21`, the GI50 in the assay with CAKI-1 was 5.41 µM (inactive); in the assay with TK-10, 26.1 µM (inactive); with HCT-15 it was 13.3 µM; in the assay on RPMI-8226, 8.05 µM (inactive); in the assay with UACC-62, 18.3 µM (inactive); in the assay on MDA-MB-231, 24.4 µM (inactive). In addition, the GI50 with T47D was 10.2 µM (inactive); in the assay with HCT-116, 70.1 µM (inactive); with NCI-H226 it was 21.6 µM (inactive); with K562, 4.63 µM (inactive); in the assay with NCI-H522, 12.9 µM (inactive); with SNB-75, 26.3 µM (inactive). The GI50 in the assay on COLO 205 is 20.7 µM (inactive); in the assay on HL-60 it was 1.31 µM (inactive); in the assay with IGROV-1 it was 5.81 µM (inactive); in the assay on SF-268, 13.7 µM (inactive).
With `COc1ccc(Nc2nc3ccc(C(F)(F)F)cc3nc2C(=O)O)cc1`, the GI50 is 46.8 µM (inactive) with CAKI-1; 30.3 µM (inactive) with TK-10; 20.4 µM (inactive) in the assay on SK-OV-3; 28.6 µM in the assay on HCT-15; 12.1 µM (inactive) with RPMI-8226; 19.1 µM (inactive) in the assay with UACC-62. Moreover, the GI50 with MDA-MB-231 was 66.4 µM (inactive); with T47D, 33.4 µM (inactive); in the assay on HCT-116, 34.7 µM (inactive); in the assay with NCI-H226, 20.6 µM (inactive); with K562 it was 29.9 µM (inactive); in the assay on SNB-75, 34.1 µM (inactive). Besides, the GI50 in the assay with COLO 205 is 34.1 µM (inactive); in the assay with IGROV-1, 17.1 µM (inactive); in the assay with SF-268, 37.7 µM (inactive); with PC-3, 29.6 µM (inactive).
As to `CC(CC=O)Nc1nn2c(=O)c3ccccc3nc2s1` (stereo unspecified), the GI50 in the assay on CAKI-1 was > 100 µM (inactive); in the assay on TK-10, > 100 µM (inactive); with SK-OV-3, > 100 µM (inactive); in the assay with HCT-15 it was > 100 µM; in the assay with RPMI-8226, > 100 µM (inactive); in the assay on UACC-62, 43.1 µM (inactive). In addition, the GI50 in the assay with T47D, in the assay with HCT-116, with NCI-H226, in the assay on K562, in the assay on NCI-H522 and in the assay with SNB-75 was > 100 µM (inactive) throughout. The GI50 in the assay on COLO 205, in the assay with IGROV-1, with SF-268 and in the assay on PC-3 was > 100 µM (inactive) each time.
On to `CC1CC2OC(=N)C1(C#N)C2(C#N)C#N` (stereo unspecified), for which the GI50 was 7.57 µM (inactive) in the assay on CAKI-1; 26.8 µM (inactive) in the assay on TK-10; > 100 µM (inactive) in the assay on SK-OV-3; 14 µM in the assay on HCT-15; 16.4 µM (inactive) in the assay with RPMI-8226; 23.4 µM (inactive) in the assay with UACC-62. For the same molecule, the GI50 with MDA-MB-231 is 17.2 µM (inactive); in the assay with T47D it was 25.9 µM (inactive); in the assay on HCT-116, 16.3 µM (inactive); with NCI-H226, 38.4 µM (inactive); with K562 it was 17.9 µM (inactive); in the assay on NCI-H522 it was 13.5 µM (inactive). The GI50 in the assay with SNB-75 was 11.5 µM (inactive); with COLO 205, 10.9 µM (inactive); in the assay on IGROV-1, 20.3 µM (inactive); in the assay with SF-268, 21.8 µM (inactive); with PC-3 it was 25.7 µM (inactive).
As for `O=c1[nH]c(=O)n(CCOc2ccccc2)cc1Nc1ccccc1`, the GI50 in the assay on CAKI-1 is > 100 µM (inactive); with HCT-15 it was > 100 µM; with RPMI-8226 it was > 100 µM (inactive); in the assay with UACC-62 it was > 100 µM (inactive); in the assay on HCT-116 it was > 100 µM (inactive); in the assay with K562, > 100 µM (inactive). For the same molecule, the GI50 was 6.11 µM (inactive) in the assay on NCI-H522; > 100 µM (inactive) in the assay with COLO 205; > 100 µM (inactive) in the assay with IGROV-1; 43.3 µM (inactive) with SF-268; > 100 µM (inactive) with PC-3.
Take `Cc1ccnc2nc(-c3ccc4ccccc4c3)cc(O)c12`: the GI50 in the assay on TK-10 was 1.75 µM (inactive); in the assay on SK-OV-3 it was 1.09 µM (active); in the assay on HCT-15 it was 0.43 µM; with RPMI-8226, 0.641 µM (active); with UACC-62, 0.531 µM (active); in the assay with MDA-MB-231 it was 1.67 µM (inactive). Moreover, the GI50 in the assay on T47D is 7.82 µM (inactive); in the assay on NCI-H226, 2.13 µM (inactive); in the assay with K562, 0.403 µM (active); with NCI-H522 it was 0.601 µM (active); with SNB-75, 1.03 µM (active); in the assay with COLO 205, 0.621 µM (active). The GI50 in the assay with IGROV-1 is 1.2 µM (inactive); in the assay on SF-268 it was 3.1 µM (inactive).
As to `C[C@H]1O[C@@H](C(C)(C)C)OC(=O)[C@@H]1C(OC(=O)c1ccccc1)c1cccc2ccccc12` (stereo partly specified), the GI50 in the assay with CAKI-1 was > 100 µM (inactive); with TK-10, > 100 µM (inactive); in the assay on SK-OV-3, > 100 µM (inactive); in the assay on HCT-15 it was > 100 µM; in the assay on RPMI-8226, > 100 µM (inactive); with UACC-62 it was > 100 µM (inactive). The GI50 with MDA-MB-231 is > 100 µM (inactive); with T47D, 64.1 µM (inactive); with HCT-116, > 100 µM (inactive); in the assay on NCI-H226, 8.87 µM (inactive); in the assay on K562, > 100 µM (inactive); with NCI-H522, > 100 µM (inactive). For the same molecule, the GI50 in the assay on SNB-75, in the assay with COLO 205, with IGROV-1, with SF-268 and in the assay with PC-3 was > 100 µM (inactive) throughout.
As for `COC[C@@H](/N=C/c1ccc(OC)cc1)C(C)C`, the GI50 in the assay on CAKI-1 was > 100 µM (inactive); in the assay on TK-10, > 100 µM (inactive); with SK-OV-3, > 100 µM (inactive); in the assay on HCT-15, > 100 µM; in the assay on RPMI-8226 it was > 100 µM (inactive); in the assay with UACC-62, > 100 µM (inactive). Moreover, the GI50 in the assay on T47D was > 100 µM (inactive); in the assay with HCT-116 it was > 100 µM (inactive); in the assay on K562, > 100 µM (inactive); with NCI-H522 it was > 100 µM (inactive); with SNB-75, > 100 µM (inactive); in the assay on COLO 205, 80.4 µM (inactive). Besides, the GI50 in the assay with IGROV-1, with SF-268 and in the assay with PC-3 was > 100 µM (inactive) in each case.
For `COc1ccc(-c2csc(Cc3nc4ccccc4c(=O)n3-c3ccc(Cl)cc3)n2)cc1`, the GI50 was > 100 µM (inactive) with CAKI-1; > 100 µM (inactive) with TK-10; > 100 µM (inactive) in the assay with SK-OV-3; 29.1 µM in the assay on HCT-15; 15.9 µM (inactive) in the assay with RPMI-8226; 18.5 µM (inactive) in the assay on UACC-62. The GI50 in the assay on MDA-MB-231 is 60.7 µM (inactive); with HCT-116, 19.8 µM (inactive); in the assay with NCI-H226, 74.6 µM (inactive); in the assay on K562, 14.6 µM (inactive); in the assay with NCI-H522, 45.7 µM (inactive); in the assay with SNB-75, > 100 µM (inactive). The GI50 with COLO 205 was 34.9 µM (inactive); with HL-60, 32.6 µM (inactive); in the assay on IGROV-1, 32.7 µM (inactive); with SF-268 it was 27.5 µM (inactive); in the assay on PC-3, 29.4 µM (inactive).
Consider `COC(=O)[C@@H]1[C@H](O)[C@H](C)[C@H](O)[C@H](C)/C=C\C=C(\C)C(=O)Nc2c(C)c(OC(C)=O)c3c(c2O)C(=O)C(C)=C2OCOC(=C23)/C(C)=C/[C@@H](O)[C@H](O)[C@@H](C)[C@H]1OC(C)=O`, for which the GI50 with RPMI-8226 was 15.5 µM (inactive); with MDA-MB-231 it was 92.9 µM (inactive); with HCT-116 it was 22.5 µM (inactive); with NCI-H226, > 100 µM (inactive); in the assay on K562, 52.7 µM (inactive); with SNB-75, > 100 µM (inactive). Moreover, the GI50 was 5.36 µM (inactive) with HL-60, 67.9 µM (inactive) in the assay with IGROV-1, 78.2 µM (inactive) with SF-268 and 31.8 µM (inactive) in the assay on PC-3.
